From patent publication US20080318949A1, “Pyrazolopyrimidinone Derivatives, Their Preparation And Their Use” (Topharman Shanghai Co., Ltd, priority 2005, published 2008)

Legend:
male KM mouse = assay: Acute oral toxicity test; type: in vivo; details: single oral dose of 3 g/kg, 10 or 11 mice per group
Experimental: In this test male KM mouse weighting 18-22 g were used, and 10 or 11 mouse were assigned randomly to each group. […] The animals were fasted for 12 hours before the administration.

[1] = biological target: T1, PDE5 from human platelets (Homo sapiens, UniProt O76074); assay: PDE5 inhibitory activity test (scintillation proximity assay); type: biochemical
T1 construct: from tissue; host or cells: human platelets
From the text: (§1) The PDE5 and PDE3 were isolated form human platelets, while the PDE6 was isolated form bovine retinas. The enzyme inhibitory activity test conducted immediately after the enzymes had been isolated, using a scintillation proximity assay for the direct detection of AMP/GMP by the TRKQ7100 and TRKQ7090 kit. In summary, the effect of PDE inhibitors was investigated by assaying a fixed amount of enzyme in the presence of varying inhibitor concentrations and low substrate. The final assay volume was made up to 100 μl with 10 μl assay buffer (50 mM Tris/HCl PH 7.5, 8.3 mM MgCl2, 1.7 mM EGTA), and water. Reactions were initiated with enzyme, incubate for 30 minutes at 30° C. and terminated with 50 μl yttrium silicate SPA beads suspension containing zinc sulphate. Shook for 20 minutes and settled for 30 minutes in the dark, then counted on a BECKMAN LS6500 MULTI-PURPOSE SCINTILLATION COUNTER. The IC50 value for the compounds according the present invention was calculated according the counts.
According to the above-mentioned method, the inhibitory activities of some compounds of formula IA and IB according to the invention against PDE5 from human platelets were determined.

PDE6 from bovine retina = biological target: T2, PDE6 from bovine retina (Bos taurus, UniProt P11541+P23439); assay: PDE6 inhibitory activity test (scintillation proximity assay); type: biochemical; details: for IC50: PDE6 from bovine retina; for PDE6 IC50/PDE5 IC50: selectivity of PDE5 versus PDE6
T2 construct: the PDE6 was isolated form bovine retinas; from tissue; host or cells: bovine retina
T2 sequence (P11541 2-856 limits assumed): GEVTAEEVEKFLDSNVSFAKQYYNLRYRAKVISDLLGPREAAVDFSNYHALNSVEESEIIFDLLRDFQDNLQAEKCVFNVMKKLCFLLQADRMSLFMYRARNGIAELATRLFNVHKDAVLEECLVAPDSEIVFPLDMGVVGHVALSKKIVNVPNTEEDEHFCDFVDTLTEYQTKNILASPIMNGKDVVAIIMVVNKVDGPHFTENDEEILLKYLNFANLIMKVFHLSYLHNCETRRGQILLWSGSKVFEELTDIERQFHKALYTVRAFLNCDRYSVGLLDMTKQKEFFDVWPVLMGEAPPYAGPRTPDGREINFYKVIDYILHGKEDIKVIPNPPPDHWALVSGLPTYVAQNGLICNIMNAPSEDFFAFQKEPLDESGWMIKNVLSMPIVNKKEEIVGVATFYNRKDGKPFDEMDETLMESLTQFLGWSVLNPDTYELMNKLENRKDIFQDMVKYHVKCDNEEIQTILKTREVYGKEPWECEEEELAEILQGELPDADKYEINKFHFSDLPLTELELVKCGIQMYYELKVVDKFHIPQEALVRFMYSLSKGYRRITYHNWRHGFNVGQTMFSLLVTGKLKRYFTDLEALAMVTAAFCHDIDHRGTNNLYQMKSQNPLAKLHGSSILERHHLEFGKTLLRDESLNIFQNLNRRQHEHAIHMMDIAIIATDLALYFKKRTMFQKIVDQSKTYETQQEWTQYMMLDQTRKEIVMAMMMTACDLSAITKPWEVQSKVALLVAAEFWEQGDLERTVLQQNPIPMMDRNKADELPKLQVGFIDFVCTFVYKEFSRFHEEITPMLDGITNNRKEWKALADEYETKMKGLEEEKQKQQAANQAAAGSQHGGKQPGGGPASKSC
T2 sequence (P23439 2-850 limits assumed): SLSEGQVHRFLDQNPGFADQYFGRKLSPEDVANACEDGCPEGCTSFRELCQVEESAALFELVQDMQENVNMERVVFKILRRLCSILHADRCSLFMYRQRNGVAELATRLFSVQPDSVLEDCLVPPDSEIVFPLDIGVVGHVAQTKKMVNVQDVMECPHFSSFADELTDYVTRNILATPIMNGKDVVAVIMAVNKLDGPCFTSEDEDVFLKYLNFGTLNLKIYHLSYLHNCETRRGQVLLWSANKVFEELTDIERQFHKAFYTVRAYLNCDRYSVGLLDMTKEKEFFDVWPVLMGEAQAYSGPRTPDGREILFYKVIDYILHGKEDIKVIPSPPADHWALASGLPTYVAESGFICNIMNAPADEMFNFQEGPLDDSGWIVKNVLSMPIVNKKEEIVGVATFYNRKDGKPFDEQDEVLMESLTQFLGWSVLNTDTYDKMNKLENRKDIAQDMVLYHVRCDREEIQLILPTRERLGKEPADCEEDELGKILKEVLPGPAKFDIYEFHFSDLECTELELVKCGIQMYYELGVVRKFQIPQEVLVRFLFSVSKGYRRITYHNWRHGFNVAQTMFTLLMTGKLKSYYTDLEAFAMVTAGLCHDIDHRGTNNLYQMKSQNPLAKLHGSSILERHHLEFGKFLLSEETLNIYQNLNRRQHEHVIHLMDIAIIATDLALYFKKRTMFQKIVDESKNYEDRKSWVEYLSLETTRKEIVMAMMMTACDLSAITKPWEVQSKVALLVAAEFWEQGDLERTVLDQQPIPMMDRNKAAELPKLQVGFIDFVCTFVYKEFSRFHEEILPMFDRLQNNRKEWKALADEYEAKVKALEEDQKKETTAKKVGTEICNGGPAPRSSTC
From the text: as §1

Molecule	Number of death (male KM mouse)	mortality rate (male KM mouse)	IC50 ([1]; PDE5 from human platelets)	IC50 (PDE6 from bovine retina)	PDE6 IC50/PDE5 IC50 (PDE6 from bovine retina)	IC50 ([1]; PDE5 in the PDE6 selectivity table)
1-methyl-5-{2-propoxy-5-[[1-ethyl-1-(3-morpholin-1-yl)propyl]amidosulfonyl]phenyl}-3-n-propyl-1,6-dihydro-7H-pyrazolo[4,3-d]pyrimidin-7-one [Example 112]	2	20%	12.1 nM			
1-methyl-5-{2-propoxy-5-[bis(2-nicotinoyloxyethyl)amidosulfonyl]phenyl}-3-n-propyl-1,6-dihydro-7H-pyrazolo[4,3-d]pyrimidin-7-one [Example 3]			0.056 nM	32.9 nM	588	0.056 nM
1-methyl-5-{2-propoxy-5-[bis(3-methoxypropyl)amidosulfonyl]phenyl}-3-n-propyl-1,6-dihydro-7H-pyrazolo[4,3-d]pyrimidin-7-one [Example 103]	0	0%	5.61 nM			
CCCOc1ccc(S(=O)(=O)N(CCOC(C)=O)CCOC(C)=O)cc1-c1nc2c(CCC)nn(C)c2c(=O)[nH]1 [Example 1, 1-methyl-5-{2-propyloxy-5-[bis(2-acetoxyethyl)amidosulfonyl]phenyl}-3-n-propyl-1,6-dihydro-7H-pyrazolo[4,3-d]pyrimidin-7-one]			0.08 nM	16.8 nM	210	
CCCOc1ccc(S(=O)(=O)N(CCO)CCO)cc1-c1nc2c(CCC)nn(C)c2c(=O)[nH]1 [Example 2, 1-methyl-5-{2-propyloxy-5-[bis(2-hydroxyethyl)amidosulfonyl]phenyl}-3-n-propyl-1,6-dihydro-7H-pyrazolo[4,3-d]pyrimidin-7-one]			0.133 nM	56.5 nM	425	
CCCc1nn(C)c2c(=O)[nH]c(-c3cc(S(=O)(=O)N(CCOC(C)=O)CCOC(C)=O)ccc3OCC)nc12 [Example 4, 1-methyl-5-{2-ethoxy-5-[bis(2-acetoxyethyl)amidosulfonyl]phenyl}-3-n-propyl-1,6-dihydro-7H-pyrazolo[4,3-d]pyrimidin-7-one]			3.37 nM	276 nM	82.1	
CCCc1nn(C)c2c(=O)[nH]c(-c3cc(S(=O)(=O)N(CCOC(=O)c4cccnc4)CCOC(=O)c4cccnc4)ccc3OCC)nc12 [Example 5, 1-methyl-5-{2-ethoxy-5-[bis(2-nicotinoyloxyethyl)amidosulfonyl]phenyl}-3-n-propyl-1,6-dihydro-7H-pyrazolo[4,3-d]pyrimidin-7-one]			1.08 nM	131 nM	131	
CCCOc1ccc(S(=O)(=O)N(CCN2CCOCC2)Cc2ccccc2)cc1-c1nc2c(CCC)nn(C)c2c(=O)[nH]1 [Example 24, 1-methyl-5-{2-propoxy-5-[[1-benzyl-1-(2-morpholin-1-yl)ethyl]amidosulfonyl]phenyl}-3-n-propyl-1,6-dihydro-7H-pyrazolo[4,3-d]pyrimidin-7-one]			0.087 nM	5.71 nM	65.6	
CCCc1nn(C)c2c(=O)[nH]c(-c3cc(S(=O)(=O)N(CCN4CCOCC4)Cc4ccccc4)ccc3OCC)nc12 [Example 25, 1-methyl-5-{2-ethoxy-5-[[1-benzyl-1-(2-morpholin-1-yl)ethyl]amidosulfonyl]phenyl}-3-n-propyl-1,6-dihydro-7H-pyrazolol[4,3-d]pyrimidin-7-one]			0.335 nM	93.6 nM	279	
CCCc1nn(C)c2c(=O)[nH]c(-c3cc(S(=O)(=O)N(CCN4CCOCC4)Cc4ccccc4)ccc3OC)nc12 [Example 26, 1-methyl-5-{2-methoxy-5-[[1-benzyl-1-(2-morpholin-1-yl)ethyl]amidosulfonyl]phenyl}-3-n-propyl-1,6-dihydro-7H-pyrazolo[4,3-d]pyrimidin-7-one]			24.9 nM			
CCOc1ccc(S(=O)(=O)N(CCN2CCOCC2)Cc2ccccc2)cc1-c1nc2c(CC)nn(C)c2c(=O)[nH]1 [Example 27, 1-methyl-5-{2-ethoxy-5-[[1-benzyl-1-(2-morpholin-1-yl)ethyl]amidosulfonyl]phenyl}-3-ethyl-1,6-diydro-7H-pyrazolo[4,3-d]pyrimidin-7-one]			0.456 nM			
CCCc1nn(C)c2c(=O)[nH]c(-c3cc(S(=O)(=O)N(CCOCCO)CCN4CCOCC4)ccc3OCC)nc12 [Example 28, 1-methyl-5-{2-ethoxy-5-[[1-(2-hydroxyethoxyethyl)-1-(2-morpholin-1-yl)ethyl]amidosulfonyl]phenyl}-3-n-propyl-1,6-dihydro-7H-pyrazolo[4,3-d]pyrimidin-7-one]			0.681 nM			
CCCc1nn(C)c2c(=O)[nH]c(-c3cc(S(=O)(=O)N(CCO)CCN4CCCCC4)ccc3OCC)nc12 [Example 29, 1-methyl-5-{2-ethoxy-5-[[1-(2-hydroxyethyl)-1-(2-piperidin-1-yl)ethyl]amidosulfonyl]phenyl}-3-n-propyl-1,6-dihydro-7H-pyrazolo[4,3-d]pyrimidin-7-one]			0.31 nM			
CCCOc1ccc(S(=O)(=O)N(CCCO)CCCO)cc1-c1nc2c(CCC)nn(C)c2c(=O)[nH]1 [Example 37]			4.9 nM			
CCCOc1ccc(S(=O)(=O)N(CC)CCN2CCOCC2)cc1-c1nc2c(CCC)nn(C)c2c(=O)[nH]1 [Example 41, 1-methyl-5-{2-propoxy-5-[[1-ethyl-1-(2-morpholin-1-yl)ethyl]amidosulfonyl]phenyl}-3-propyl-1,6-dihydro-7H-pyrazolo[4,3-d]pyrimidin-7-one]			10.5 nM			
